In patent US20240150368A1, “ULK INHIBITORS AND METHODS OF USE THEREOF” (Deciphera Pharmaceuticals, LLC, priority 2022, published 2024) one finds IC50 data, which are given here for 12 compounds.

pIC50: −log10 of the molar value.

Assay [1] deals with ULK kinase substrate ATG13 (pS318-ATG13) in A549 (KRAS mutant) cells. As to the kind of experiment: pATG13 levels of mutant KRas A549 cells after treatment with ULK inhibitors in combination with trametinib (ELISA). It counts as cell-based, human. The gist of the method: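 A549 cells grown overnight were treated with a test-compound dose response plus trametinib at 250 nM final (or DMSO) overnight at 37° C. Lysates were assayed by total-ATG13 capture and biotinylated pS318-ATG13 detection ELISA (450 nm minus 540 nm background); % phosphorylation versus controls gave IC50 values.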
(ELISA stands for enzyme-linked immunosorbent assay.)

A further assay addresses T1, ULK2 kinase (Homo sapiens, UniProt Q8IYT8).
T1 construct: (residues 1-306 with N-terminal GST and His tag; ID NO: 2); purchased Signal Chem U02-11G
As to the kind of experiment: Biochemical assay for ULK2 (coupled pyruvate kinase/lactate dehydrogenase assay). The note with it: 1 mM ATP, 1 nM ULK2; read-out: ULK2 (inhibition of biochemical activity), IC50. The gist of the method:
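Continuous PK/LDH-coupled NADH oxidation assay (A340) with 1 nM ULK2, 200 μM ULKtide and 1 mM ATP in Tris pH 7.5, 15 mM MgCl2, 1% DMSO, read 6 h at 30° C. Rates from the 2-3 h window converted to percent inhibition against no-compound and known-inhibitor controls; IC50 by four-parameter sigmoidal fit.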

For the next assay, the target named is T2, ULK1 kinase (Homo sapiens, UniProt O75385, E37A/K38A).
T2 construct: (residues 1-283; ID NO: 1); purchased Beryllium
T2 sequence (O75385 1-283 E37A/K38A): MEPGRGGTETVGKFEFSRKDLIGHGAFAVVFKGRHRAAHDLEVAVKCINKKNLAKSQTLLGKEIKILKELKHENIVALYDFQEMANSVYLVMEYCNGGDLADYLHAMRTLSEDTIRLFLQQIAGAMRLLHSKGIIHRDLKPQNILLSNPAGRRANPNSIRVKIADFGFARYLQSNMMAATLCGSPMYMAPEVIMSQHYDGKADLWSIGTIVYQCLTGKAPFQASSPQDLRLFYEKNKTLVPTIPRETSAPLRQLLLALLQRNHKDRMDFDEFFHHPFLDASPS
The assay can be described thus: Biochemical assay for ULK1 (coupled pyruvate kinase/lactate dehydrogenase assay). The note with it: 1 mM ATP, 0.1 nM ULK1; read-out: ULK1 (inhibition of biochemical activity), IC50. The method, boiled down: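 IC50 values were fitted to percent inhibition, normalised with no-compound and known-inhibitor controls, using rates from 2–3 h of a 6 h read at 30 °C. ADP was coupled through pyruvate kinase/lactate dehydrogenase to NADH loss at 340 nm.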

T1 sequence (Q8IYT8 with tags, fused parts or gaps): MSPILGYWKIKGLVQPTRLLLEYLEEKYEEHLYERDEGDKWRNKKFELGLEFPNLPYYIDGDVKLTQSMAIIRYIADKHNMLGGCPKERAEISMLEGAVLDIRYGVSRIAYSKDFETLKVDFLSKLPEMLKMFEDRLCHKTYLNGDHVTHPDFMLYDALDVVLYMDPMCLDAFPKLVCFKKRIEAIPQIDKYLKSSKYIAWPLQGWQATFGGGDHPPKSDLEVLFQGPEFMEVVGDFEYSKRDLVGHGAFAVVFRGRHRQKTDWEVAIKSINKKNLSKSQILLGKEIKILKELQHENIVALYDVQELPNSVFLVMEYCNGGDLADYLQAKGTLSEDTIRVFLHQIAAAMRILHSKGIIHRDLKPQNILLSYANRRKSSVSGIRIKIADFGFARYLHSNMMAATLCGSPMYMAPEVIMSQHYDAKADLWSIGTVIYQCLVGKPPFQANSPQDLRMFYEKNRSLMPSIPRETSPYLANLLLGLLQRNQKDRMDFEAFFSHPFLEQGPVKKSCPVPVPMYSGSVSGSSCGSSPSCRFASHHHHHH

A word on the pIC50: it is −log10 of the IC50, conventionally taken in molar units. Consider `CC/C(Nc1cnn(CC)c1)=C1/C(=O)Nc2ccc(C(=O)NCC3(F)CC3)cc21` [Example 153], for which the pIC50 in assay [1] was not below 7.00; at ULK2 kinase, not below 8.00; at ULK1 kinase, not below 8.00.
For the compound `CC/C(Nc1cnn(C)c1)=C1/C(=O)Nc2ccc(C(=O)NCC3(F)CC3)cc21` [Example 154], the pIC50 is not below 7.00 in assay [1], 7.00 to 8.00 at ULK2 kinase and not below 8.00 at ULK1 kinase.
With `CC/C(Nc1cnn(C(C)C)c1)=C1/C(=O)Nc2ccc(C(=O)NCC3(C#N)CC3)cc21` [Example 156], the pIC50 is not below 7.00 in assay [1], 7.00 to 8.00 on ULK2 kinase and not below 8.00 on ULK1 kinase.
Consider `CC/C(Nc1cnn(CC(C)OC)c1)=C1/C(=O)Nc2ccc(C(=O)NCC(F)(F)F)cc21` (stereo not drawn) [Example 157], for which the figures for the pIC50 (in assay [1]; at ULK2 kinase; on ULK1 kinase) were 6.52 to 7.00, 6.30 to 7.00 and 7.00 to 8.00, respectively.
In the case of `CC/C(Nc1cnn(CC(C)OC)c1)=C1/C(=O)Nc2ccc(C(=O)NCC(F)(F)F)cc21` (stereo not drawn) [Example 158], the pIC50 in assay [1] is 6.52 to 7.00; on ULK2 kinase, 6.30 to 7.00; at ULK1 kinase it was 7.00 to 8.00.
The matching figures for `CC/C(Nc1cnn(C(C)CC)c1)=C1/C(=O)Nc2ccc(C(=O)NCC(F)(F)F)cc21` (stereo not drawn) [Example 159]: 6.52 to 7.00, 7.00 to 8.00 and 7.00 to 8.00.
The matching figures for `CC/C(Nc1cnn(CC(F)(F)F)c1)=C1/C(=O)Nc2ccc(C(=O)NCC(C)(C)F)cc21` [Example 160]: 6.52 to 7.00, 7.00 to 8.00 and not below 8.00.
The corresponding values for `CC/C(Nc1cnn(CC(F)F)c1)=C1/C(=O)Nc2ccc(C(=O)NCC(C)(C)F)cc21` [Example 161] are not below 7.00, 7.00 to 8.00 and not below 8.00.
Turning to `CC/C(Nc1cnn(C(C)C)c1)=C1/C(=O)Nc2ccc(C(=O)NCCC(F)(F)F)cc21` [Example 166], the pIC50 in assay [1] is not below 7.00; on ULK2 kinase, not below 8.00; at ULK1 kinase it was not below 8.00.
With `CC/C(Nc1cnn(C(C)C)c1)=C1/C(=O)Nc2ccc(C(=O)NCC3(C)CCOC3)cc21` (stereo not drawn) [Example 168], the pIC50 in assay [1] was 6.22 to 6.52; at ULK2 kinase it was 7.00 to 8.00; on ULK1 kinase, 7.00 to 8.00.
Take `CC/C(Nc1cnn(C(F)(F)F)c1)=C1/C(=O)Nc2ccc(C(=O)NCC(C)C)cc21` [Example 169]: the pIC50 in assay [1] was 6.52 to 7.00; on ULK2 kinase, 7.00 to 8.00; on ULK1 kinase, 7.00 to 8.00.
In the case of `CC/C(Nc1cnn(C2CCOCC2)c1)=C1/C(=O)Nc2ccc(C(=O)NCC(C)(C)F)cc21` [Example 173], the figures for the pIC50 (in assay [1]; at ULK2 kinase; at ULK1 kinase) were not below 7.00, not below 8.00 and not below 8.00, respectively.
